From PubChem BioAssay AID651703 (Broad Institute, 2012) come the findings set out here.

The target of this experiment is Transforming acidic coiled-coil-containing protein 3 (Homo sapiens) (UniProt Q9Y6A5). The experiment can be described thus: ARNT/TACC3 interaction disruptors, potency, confirmation, biochemical, AlphaScreen, cherry-picked samples (AID 651703).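 Further: TACC3 partner is the GST-tagged E629A mutant dimer; hits lower the signal meaning they disrupt ARNT binding to TACC3.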 The note with it: AlphaScreen His-ARNT PAS-B / GST-TACC3 binding, luminescence.
For the compound `O=C(N[C@H]1CC[C@@H](CCn2cc(-c3ccccn3)nn2)O[C@H]1CO)c1ccccc1`, the AC50 was 12.1 µM.

`O=c1oc2c3c4c(cc2s1)CCCN4CCC3`: the AC50 was 26.1 µM.

On to `Cc1cc(C(=O)N/N=C/c2c(CO)cnc(C)c2O)c2ccccc2n1`, for which the concentration at half-maximal activity (AC50) was 3.5 µM.

In the case of `O=c1[nH]c(O)c(N=Nc2cc([N+](=O)[O-])ccc2O)c(=O)[nH]1`, the AC50 is 25.5 µM.

For the compound `O=C(Nc1nnc(-c2ccco2)o1)c1ccc(S(=O)(=O)N2CCOCC2)cc1`, the half-maximal activity concentration (AC50) is 36.1 µM.

Regarding `O=C(COC(=O)c1ccco1)Nc1nnc(-c2ccccc2)o1`, the half-maximal activity concentration (AC50) is 24.8 µM.

Regarding `COc1cccc(/C=N/NC(=O)CNC(=O)c2ccncc2)c1O`, the AC50 is 64.8 µM.

Regarding `Cc1nc2ccccc2c(=O)n1/N=C/c1ccc(O)c(O)c1O`, the concentration at half-maximal activity (AC50) was 25.9 µM.

For the compound `C=C1c2cccc(O)c2C(=O)C2C(=O)[C@]3(O)C(=O)C(C(N)=O)C(=O)[C@@H](N(C)C)[C@@H]3[C@@H](O)[C@H]12` (some centres undefined), the concentration at half-maximal activity (AC50) was 21.2 µM.

Regarding `CCOC(=O)N1CCN(C(c2cccnc2)c2ccc3cccnc3c2O)CC1` (centres undefined), the concentration at half-maximal activity (AC50) was 4.64 µM.

`CN1CC[C@@]2(C)c3cc(O)ccc3N(C)[C@@H]12`: the AC50 is 60.1 µM.

Consider `O=C(Nc1nnc(-c2cccs2)o1)c1ccco1`, for which the half-maximal activity concentration (AC50) was 48.4 µM.

In the case of `COc1ccc2nc(/N=C/c3c(C)[nH]n(-c4ccc(C)cc4)c3=O)sc2c1`, the concentration at half-maximal activity (AC50) was 46.3 µM.

Take `c1ccc(-c2nc3ccccn3c2NC2CCCC2)nc1`: the concentration at half-maximal activity (AC50) was 13.9 µM.

As to `Nc1ncnc(Oc2cccc3cccnc23)c1[N+](=O)[O-]`, the AC50 is 11.1 µM.

As for `CCOC(=O)c1cnc(Nc2nc3ccccc3o2)nc1CN1CCN(C)CC1`, the AC50 was 6.81 µM.

`O=C(CSc1ccc(-c2ccccn2)nn1)Nc1nccs1`: the AC50 is 2.93 µM.

Take `O=C(CSc1ccc(-c2ccccn2)nn1)N1CCCc2ccccc21`: the AC50 is 5.32 µM.

As for `OCCN1CCN(C(=S)c2ccc(Cl)c(Cl)c2)CC1`, the AC50 was 33.2 µM.

`Oc1ccc(Cl)cc1CNc1cccc2cccnc12`: the AC50 is 54.8 µM.

As to `CC1(c2ccccc2)NC(=O)N(CC(=O)Nc2nc(-c3ccccn3)cs2)C1=O` (centres undefined), the AC50 was 6.64 µM.

For `COc1ccc(S(=O)(=O)n2oc(=O)cc2-c2ccccc2)cc1OC`, the half-maximal activity concentration (AC50) was 2.6 µM.

In the case of `Cc1cccc(S(=O)(=O)N[C@@H]2CC[C@@H](CCn3cc(-c4ccccn4)nn3)O[C@@H]2CO)c1`, the AC50 is 26.7 µM.

As to `OCCN(Cc1cccnc1)Cc1ccccn1`, the half-maximal activity concentration (AC50) is 2.28 µM.

Consider `C[C@H](NC(=O)c1ccco1)C(=O)Nc1nc(-c2ccccn2)cs1`, for which the half-maximal activity concentration (AC50) is 8.23 µM.

As for `Cc1cccc(S(=O)(=O)N[C@H]2CC[C@H](CCn3cc(-c4ccccn4)nn3)O[C@H]2CO)c1`, the AC50 was 18.5 µM.

`O=S(=O)(N[C@@H]1CC[C@H](CCn2cc(-c3ccccn3)nn2)O[C@@H]1CO)c1cccc(F)c1`: the half-maximal activity concentration (AC50) is 29.1 µM.

Consider `c1ccc(-c2nnc(-c3ccccn3)nc2N2CCC(c3ccccc3)C2)cc1` (centres undefined), for which the half-maximal activity concentration (AC50) was 4.75 µM.

Take `Cc1ccc(-n2c(-c3ccc(Br)cc3)c[n+]3c2CCc2ccc4cccnc4c2-3)cc1`: the AC50 was 1.45 µM.

With `CCOC(=O)c1c(OCC)[nH]c2c1cc(O)c1ccccc12`, the AC50 is 56.9 µM.

For `Cc1cc(C)c(NC(=O)CSc2nnc(-c3ccccn3)n2N)c(Cl)c1`, the half-maximal activity concentration (AC50) is 37.1 µM.

For the compound `CC(C)(C)OC(=O)N1CCN(Cc2ccc(O)c3ncccc23)CC1`, the half-maximal activity concentration (AC50) was 0.625 µM.

For the compound `O=C(N[C@@H]1CC[C@H](CCn2cc(-c3ccccn3)nn2)O[C@@H]1CO)c1ccccc1`, the AC50 is 20.7 µM.

With `Cc1cccc(NC(=O)CSc2cccc3cccnc23)c1`, the AC50 was 21.8 µM.

As for `c1ccc(-c2nnc(-c3ccccn3)nc2N2CCC(C3CCCCC3)C2)cc1` (centres undefined), the half-maximal activity concentration (AC50) is 2.68 µM.

For the compound `O=C(Nc1ccc(F)cc1)c1nc[nH]c1C(=O)O`, the AC50 is 14.3 µM.

As to `CCC(=O)NC(c1cc(Cl)c2cccnc2c1O)C(C)C` (centres undefined), the half-maximal activity concentration (AC50) is 5.58 µM.

As for `O=C(N/N=C/c1cccc2nccnc12)c1ccccc1O`, the AC50 is 4.77 µM.

On to `CCN(CCCl)c1cc(CN(C)C)cc(NC(=O)c2ccc(C(=O)Nc3cc(CN(C)C)cc(N(CC)CCCl)c3)cc2)c1`, for which the concentration at half-maximal activity (AC50) was 1.92 µM.

On to `O=C(NCCCn1ccnc1)Nc1cccc(Cl)c1`, for which the AC50 is 9.64 µM.

On to `Cc1ccc(C2(C)NC(=O)N(CC(=O)Nc3nc(-c4ccccn4)cs3)C2=O)cc1` (centres undefined), for which the half-maximal activity concentration (AC50) was 4.67 µM.

Consider `CCOc1ccc(N(CC(=O)Nc2ccc(OC)cc2OC)S(=O)(=O)c2c(C)[nH]c(=O)[nH]c2=O)cc1`, for which the AC50 is 27.6 µM.

With `CC(Oc1ccccc1)C(=O)Nc1nc(-c2ccccn2)cs1` (centres undefined), the concentration at half-maximal activity (AC50) is 13.2 µM.

In the case of `COc1cc(CNCc2ccccn2)ccc1OCC(=O)NC(C)(C)C`, the AC50 is 26.4 µM.

As for `O=C(NC[C@H]1[C@@H](c2ccccc2)[C@@H](CO)N1Cc1ccccn1)C1CC1`, the half-maximal activity concentration (AC50) is 48.4 µM.

For the compound `Cc1ccnc2nc(C(=O)Nc3nc(-c4ccccn4)cs3)nn12`, the half-maximal activity concentration (AC50) is 2.53 µM.

Consider `C/C(=N\NC(=O)C1CCCN(S(=O)(=O)c2ccccc2)C1)c1ccccn1` (centres undefined), for which the AC50 was 11.1 µM.

With `Cc1ccc(CNc2nc(-c3ccccn3)nnc2-c2ccccc2)cc1C`, the concentration at half-maximal activity (AC50) was 0.558 µM.

For the compound `O=C(Nc1nc(-c2ccccn2)cs1)c1ccco1`, the half-maximal activity concentration (AC50) was 2.17 µM.

`COC(=O)c1ccc(NC(=O)CSc2ccc(-c3ccccn3)nn2)cc1`: the half-maximal activity concentration (AC50) is 2.57 µM.

As to `O=C(N[C@@H]1CC[C@H](CCn2cc(-c3ccccn3)nn2)O[C@H]1CO)c1ccccc1`, the half-maximal activity concentration (AC50) is 27.6 µM.

With `CCOc1ccc(NC(=O)c2c(NC(=O)CNCCN3CCOCC3)sc3c2CCC3)cc1`, the half-maximal activity concentration (AC50) was 14.6 µM.

For `C[C@H]1CN([C@@H](C)CO)C(=O)c2cccc(NC(=O)Nc3cccc4ccccc34)c2O[C@@H]1CN(C)S(=O)(=O)c1ccc(Cl)cc1`, the concentration at half-maximal activity (AC50) is 51.9 µM.

Take `O=C(CSc1ccc(-c2ccccn2)nn1)N1CCCC1`: the concentration at half-maximal activity (AC50) was 3.05 µM.

Regarding `O=S(=O)(N[C@H]1CC[C@H](CCn2cc(-c3ccccn3)nn2)O[C@H]1CO)c1cccc(Cl)c1`, the AC50 was 26.6 µM.

Turning to `O=C(N/N=C/c1sc2ccccc2c1O)c1cccc2ccccc12`, the half-maximal activity concentration (AC50) is 23 µM.

On to `Cc1ccccc1Nc1nc(N)nc(CN(C)Cc2ccccc2Cl)n1`, for which the AC50 was 53.5 µM.

Regarding `COc1ccc(Cc2nnc(N/N=C/c3ccccc3O)[nH]c2=O)cc1OC`, the AC50 was 1.42 µM.

With `COC(=O)Cc1cc(=O)n(-c2nc3ccccc3[nH]2)[nH]1`, the half-maximal activity concentration (AC50) is 2.68 µM.

For the compound `O=S(=O)(N[C@@H]1CC[C@@H](CCn2cc(-c3ccccn3)nn2)O[C@@H]1CO)c1cccc(F)c1`, the half-maximal activity concentration (AC50) was 13.4 µM.

Consider `Cc1ccccc1NC(=O)CSc1ccc(-c2ccccn2)nn1`, for which the half-maximal activity concentration (AC50) is 3.47 µM.

`Cc1nnc(NC(=O)C2CCN(S(=O)(=O)c3cc([N+](=O)[O-])ccc3Cl)CC2)o1`: the half-maximal activity concentration (AC50) is 21.9 µM.

For `CN1CCN(c2nc(-c3ccccn3)nnc2-c2ccccc2)CC1`, the AC50 was under 0.5 µM.

For the compound `COc1ccc(NC(=O)N[C@H]2CC[C@@H](CCn3cc(-c4ccccn4)nn3)O[C@H]2CO)cc1`, the concentration at half-maximal activity (AC50) is 17 µM.

For `O=C(CSc1ccc2nnc(-c3ccccn3)n2n1)Nc1ccc(F)cc1F`, the AC50 is 35.4 µM.

Consider `O=C(Nc1nnc(-c2ccccc2Cl)o1)c1cccnc1`, for which the AC50 is 15.8 µM.

On to `O=C(Oc1c(CN2CCOCC2)cc(Cl)c2cccnc12)c1ccccc1`, for which the AC50 was 18.3 µM.

For the compound `O=S(=O)(c1ccc(Br)cc1)c1nc(-c2ccco2)oc1NCCCn1ccnc1`, the AC50 is 33.9 µM.

As to `Cc1[nH]n(-c2ccccc2)c(=O)c1/C=N\NC(=O)C1COc2ccccc2O1` (centres undefined), the AC50 was 17.4 µM.

The AC50 is the concentration at which the activity in the assay is half-maximal.
